Where “and” joins values, the source holds several entries; their conditions need not be identical. Identical values can stand only once.
Tests used:
full-length MALT1 = target: T1, full-length MALT1 (Homo sapiens, UniProt Q9UDY8); assay: SPR binding of M1i-124 to immobilized full-length MALT1; conditions: steady-state affinity model; read-out: equilibrium dissociation constant (KD)
T1 construct: full-length GST-tagged MALT1 (Novus, catalog H00010892-P01) protein; purchased Novus H00010892-P01
Procedure: Surface plasmon resonance (SPR) experiments were performed on a Biacore 2000 system (Cytiva). Full-length GST-BCL10 (Abnova, catalog H00008915-P01) was immobilized onto a gold sensor chip surface, and analyte solution containing MALT1(DD+Ig1-2), MALT1(DD), or MALT1(Ig1-2) purified protein was injected over the surface through a series of flow cells (see Supplemental Methods for details on protein purification). The binding kinetic parameters were obtained using the Langmuir model for global fitting with 1:1 binding ratio where one ligand molecule interacts with one analyte molecule. The equilibrium dissociation constant (KD) of M1i-124 to full-length GST-tagged MALT1 (Novus, catalog H00010892-P01) protein was determined by Creative Biolabs using Biacore T200. Full-length MALT1 protein was immobilized onto CM5 sensor chip surface, and M1i-124 was injected at concentrations of 0, 12.5, 25, 50, 100, and 200 μM. The steady-state affinity model was used to determine the KD.

OCI-Ly7 cells = assay: Apoptosis, annexin staining flow cytometry; assay type: cell-based, human
OCI-Ly1 cells = assay: CellTiter-Glo ATP viability; assay type: cell-based, human
Procedure: Cell proliferation, viability, and apoptosis assays. […]
Fluorescent Intensity (MFI) was analyzed by FlowJo (version 10.8.0, BD). CellTiter-glo luminescence assay (Promega, Cat# G7570) was used to quantify ATP levels as a surrogate marker of metabolic viability in DLBCL cells treated with compounds for 6-8 days. Annexin V Alexa 488 (ThermoFisher Scientific, Cat# A13201) and SYTOX Blue Dead Cell (ThermoFisher Scientific, Cat# S34857) stains were used to detect apoptosis in DLBCL cells after treatment with 1 µM compounds for 8 days in TMD8 and OCI-Ly1 and for 5 days in OCI-Ly3 cells, then analyzed with flow cytometry. The percentages of cells in early and late apoptosis were combined for quantification. For CellTrace Violet, CellTiter-glo, and Annexin V apoptosis assays, cell were cultured in media with 50% of the usual serum. […]

C57BL/6 mice = assay: Long-term (28 days) in vivo toxicity; set-up: species or system mouse
Procedure: Long-term in vivo toxicity experiments. WT C57/BL6 (The Jackson Laboratory) male and female mice were treated daily with 50 mg/kg M1i-124 or vehicle control for 28 days. At the time of sacrifice, blood was obtained for complete blood count, alanine transaminase, albumin, and total bilirubin (Abaxis). Livers from control and M1i-124 treated mice were collected for H&E analysis. […]

[1] = tested on: BCL10 and MALT1 mRNA in TMD8 cells; assay: BCL10 and MALT1 mRNA expression, qRT-PCR; assay type: cell-based, human; conditions: TMD8, 1 μM
TMD8 cells = assay: cells; set-up: species or system TMD8 or OCI-Ly3; Inhibition of spontaneous IL-10 secretion from ABC-DLBCL cells, human IL-10 ELISA of supernatants; conditions: Homo sapiens, TMD8, 20 h; IL-10 secretion; read-out: IC50 (µM) IL-10 inhibition
Procedure: Cytokine ELISAs. Cytokines in cell culture supernatants were measured 20-24h after treatment with 0, 0.01, 0.03, 0.1, 0.3, 1, or 3 µM of compounds using the following ELISA kits according to the manufacturer’s instructions: Human IL-2 ELISA (BioLegend Cat# 431804), Human IL-6 ELISA (BioLegend Cat# 430504), and Human IL-10 ELISA (BioLegend Cat# 430604). TMD8 and OCI-Ly3 cells were treated with specific doses of compounds in serum-free media for 20 hours. Jurkat T cells were pretreated with specific doses of compounds for 8 hours in serum-free media, then stimulated with PMA/ionomycin for 16 hours prior to the collection of supernatants. Mouse splenocytes were isolated from spleens of C57/BL6 mice by passing spleens through a 70 micron filter followed by red blood cell lysis using ACK lysing buffer (Quality Biologics, Cat# 118-156-101). […] Supernatant was collected at 24 hours and mouse IL-2 levels were analyzed via ELISA (R&D Systems, Cat# DY402-05). IL-6 and IL-10 are NF-κB–induced cytokines that promote the proliferation and survival of malignant B cells through both autocrine and paracrine mechanisms ([44]), and are negative prognostic factors in ABC-DLBCL ([45], [46]). ABC-DLBCL cell lines spontaneously secrete substantial levels of IL-6 and IL-10, whereas GCB-DLBCL cell lines express only a negligible amount of these cytokines ([24]). […] The IC50 for inhibition of cytokine secretion by each compound in each cell line is reported in Supplemental Table 1.  Figure 4 M1i-124 and M1i-124d1 inhibit MALT1 protease and scaffolding functions, and MALT1-dependent cytokine secretion, in ABC-DLBCL cells. (A and B) Effect of 1 μM compound pretreatment on constitutive RelB cleavage (A) and IκB phosphorylation (B) within TMD8 cells. Representative Western blots are shown along with quantification (mean ± SEM; n = 2). (C) IL6 and IL10 mRNA levels in TMD8 cells treated with 1 μM M1i-124 or M1i-124d1 (mean ± SEM; n = 6). […] Statistical analyses were performed using 1-way ANOVA and Dunnett’s multiple-comparison test. **P < 0.01, ***P < 0.001, ****P < 0.0001.

[2] = tested on: IL-2 secretion from Jurkat T cells; assay: Secreted IL-2 ELISA after PMA/Iono; assay type: cell-based, human; conditions: PMA/Iono treated, Suppl Fig. 4A
[3] = 28 days, vs control, result in words

T1 sequence (Q9UDY8 1-813 isoform Q9UDY8-2): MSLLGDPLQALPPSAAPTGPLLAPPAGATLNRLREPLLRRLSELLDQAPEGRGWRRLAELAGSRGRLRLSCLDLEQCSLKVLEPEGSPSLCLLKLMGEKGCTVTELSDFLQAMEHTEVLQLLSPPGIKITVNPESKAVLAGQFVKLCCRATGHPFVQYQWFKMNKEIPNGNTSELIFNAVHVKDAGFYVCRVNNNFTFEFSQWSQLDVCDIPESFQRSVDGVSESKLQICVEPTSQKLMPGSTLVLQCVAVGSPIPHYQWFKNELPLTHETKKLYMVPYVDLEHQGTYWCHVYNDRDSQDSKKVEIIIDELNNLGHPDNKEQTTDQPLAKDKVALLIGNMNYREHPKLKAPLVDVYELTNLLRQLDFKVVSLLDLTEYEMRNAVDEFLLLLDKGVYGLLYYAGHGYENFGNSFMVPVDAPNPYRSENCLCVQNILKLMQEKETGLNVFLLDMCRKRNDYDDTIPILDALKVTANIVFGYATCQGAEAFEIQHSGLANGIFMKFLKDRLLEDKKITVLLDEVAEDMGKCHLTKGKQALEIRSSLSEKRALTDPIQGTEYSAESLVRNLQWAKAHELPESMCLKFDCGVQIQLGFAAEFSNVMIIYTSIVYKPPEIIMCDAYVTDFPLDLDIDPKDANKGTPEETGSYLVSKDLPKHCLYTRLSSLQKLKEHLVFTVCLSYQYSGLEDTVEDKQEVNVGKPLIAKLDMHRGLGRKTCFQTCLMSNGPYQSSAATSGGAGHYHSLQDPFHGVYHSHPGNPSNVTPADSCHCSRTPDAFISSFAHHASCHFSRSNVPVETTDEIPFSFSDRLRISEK

## O=S(=O)(NCc1ccc2c(c1)OCO2)c1ccc(Cc2ccc(S(=O)(=O)NCc3ccc4c(c3)OCO4)cc2)cc1 [M1i-124]
full-length MALT1
  Kd: 296 µM
OCI-Ly7 cells; Ly7, individual replicates
  Annexin (% positivity): 27% and 16.65% and 14.5%
OCI-Ly7 cells; result in words
  apoptosis of OCI-Ly7 cells: either no or minimal apoptotic response
OCI-Ly1 cells; OCI-Ly1, M1i-124 (µM) 0.02
  CellTiter-Glo viability (% of control): 107.27% and 98.9873% and 92.7867%
OCI-Ly1 cells; OCI-Ly1, M1i-124 (µM) 0.05
  CellTiter-Glo viability (% of control): 97.4522% and 115.002% and 102.297%
OCI-Ly1 cells; OCI-Ly1, M1i-124 (µM) 0.1
  CellTiter-Glo viability (% of control): 110.647% and 95.1607% and 118.153%
OCI-Ly1 cells; OCI-Ly1, M1i-124 (µM) 0.2
  CellTiter-Glo viability (% of control): 107.42% and 81.8681% and 81.0306%
OCI-Ly1 cells; OCI-Ly1, M1i-124 (µM) 0.5
  CellTiter-Glo viability (% of control): 117.286% and 98.6082% and 99.6544%
OCI-Ly1 cells; OCI-Ly1, M1i-124 (µM) 1
  CellTiter-Glo viability (% of control): 125.229% and 113.171% and 94.1756%
OCI-Ly1 cells; OCI-Ly1, M1i-124 (µM) 2
  CellTiter-Glo viability (% of control): 125.761% and 123.625% and 96.808%
OCI-Ly1 cells; OCI-Ly1, M1i-124 (µM) 5
  CellTiter-Glo viability (% of control): 145.729% and 138.657% and 113.755%
C57BL/6 mice; 28 days, result in words
  Albumin: decrease in albumin
  alanine transaminase or total bilirubin: did not result in a change
  liver histology (H&E): no appreciable difference
C57BL/6 mice; [3]
  blood counts (white blood cell count, hemoglobin, platelet count): did not result in a statistically significant change
  change in weight: did not result in a statistically significant change
C57BL/6 mice; C57BL/6 mice, 50 mg/kg daily, 28 days, 50 mg/kg
  % change in body weight: 9.778% and 0% and 8.3% and 7.514% and 2.89% and 0.5714% and 7.273% and 4.7619%
C57BL/6 mice; individual mice
  ALT: 35 U/L and 100 U/L and 26 U/L and 120 U/L and 180 U/L and 125 U/L
  Albumin: 3.5 g/dL and 2.5 g/dL and 2.1 g/dL and 1.9 g/dL and 3.2 g/dL
  Hemoglobin: 13.2 g/dL and 10.9 g/dL and 13.7 g/dL and 12.6 g/dL and 14 g/dL and 12 g/dL and 10.3 g/dL and 11.3 g/dL and 12.9 g/dL
  Platelets: 439 10^9/L and 412 10^9/L and 524 10^9/L and 394 10^9/L and 557 10^9/L and 522 10^9/L and 479 10^9/L and 381 10^9/L and 186 10^9/L
  Total Bilirubin: 0.3 mg/dL and 0.4 mg/dL and 0.2 mg/dL
  WBC: 8.15 10^9/L and 3.97 10^9/L and 4.01 10^9/L and 2.58 10^9/L and 5.28 10^9/L and 4.82 10^9/L and 3.12 10^9/L and 3.23 10^9/L and 1.49 10^9/L
C57BL/6 mice; result in words
  in vivo tolerability: well tolerated with minimal toxicity
[1]; 48 hrs
  BCL10 mRNA (normalized): 1.102 and 1.661 and 1.831
[1]; 72 hrs
  BCL10 mRNA (normalized): 2.063 and 2.239 and 2.314
  MALT1 mRNA (normalized): 1.674 and 1.428 and 1.962

## COc1ccc(CNS(=O)(=O)c2ccc(Cc3ccc(S(=O)(=O)NCc4ccc(OC)cc4)cc3)cc2)cc1 [M1i-124d1]
TMD8 cells
  IC50: 0.2 µM

## CN1CCCC(CN2c3ccccc3Sc3ccccc32)C1 (stereo not drawn) [Mepazine, mepazine, reference compound]
[2]; Homo sapiens, Jurkat, read-out: IL-2 protein level (% of control)
  activity at 5 µM: 29.9%
[2]; 5 uM
  IL-2 protein level (% of control): 22.8269 % of control and 31.0927 % of control
